Values quoted from earlier work in patent US20170046504A1, “SYSTEM FOR DETERMINING A SUITABILITY OF AN ACTIVE INGREDIENT TO BE APPLIED TRANSDERMALLY OR TRANSMUCOSALLY AND CORRESPONDING METHOD” (LTS Lohmann Therapie-Systeme AG, priority 2014, published 2017).

Assays:
[1] = assumed
[2] = in vivo

For `CN1CCCC1c1cccnc1` (centres unmarked) [nicotine], the “efficiency for oral administration” value [1] is given as 20-45% and the half-life period [2] is given as 1 to 6 h.
